Where a SMILES comes first, the peptide text is derived from it. The star is where a group is joined. 6FAM = O=C1OC2(c3ccc(O)cc3Oc3cc(O)ccc32)c2cc(C(=O)*)ccc21
Assay: Microfluidic peptide partitioning and transport through cervical mucus
Type: in vitro ADME, human
Settings: for concentration of the peptide at the end of the channel (450 μm) / average maximum concentration of peptide accumulated inside mucus (enrichment at mucus-buffer interface): mean (SD); for average maximum concentration of peptide accumulated inside mucus (enrichment at mucus-buffer interface): 15-min experiment
Procedure: We quantified partitioning and transport of the reporter peptides through mucus using a previously described microfluidics device, [38]. With this setup, a continuous aqueous flow of fluorescent peptides is generated within a micron-scale channel at carefully controlled rates adjacent to a stable mucus layer. The small sample volume (5 μL) required for this system is ideally suited for the study of native mucus samples, which are typically not available in large volumes. The peptide solutes partition into the mucus layer, and their subsequent transport is monitored with fluorescence microscopy (Fig. 3a and b).
We quantified the transport of (+) and (−) charged peptides in mucus from 20 ovulating, 15 low-risk pregnant, and 9 high-risk pregnant patients (Table 2; see the table caption for specific information on cohort composition). […] Peptides at a concentration of 4 μM were introduced into the microfluidic channel in the presence of the mucus sample or in the presence of buffer. […] Concentration profiles of the fluorescent peptides were acquired through the center cross - section of the mucus channel (Fig. 3a,b, Methods).
Peptides were synthesized, purified, and identified by the Swanson Biotechnology Center at the Koch Institute at MIT (Cambridge, MA, USA). […] Peptides were purified using reverse-phase high performance liquid chromatography. […] Before use in the microfluidic device, peptides were dissolved in H7 buffer (20 mM HEPES, 20 mM NaCl, pH 7) at a final concentration of 4 μM.
Microfluidic polydimethylsiloxane devices were designed and fabricated as previously described, [38], and cured at 95 °C for 48–72 h prior to use. Devices bonded to microscope slides were mounted on an inverted epifluorescence microscope (IX-71, Olympus American, Central Valley, PA; or Zeiss Observer Z1) equipped with a 5x or 10x objective and LED light source or mercury lamp (excitation at 450–495 nm or 475 nm, respectively). All channels were washed with H7 buffer before use. The two valves were closed or opened by applying or releasing pressure with a 3-mL syringe connected to the valves via polytetrafluoroethylene tubing. All experiments were carried out at room temperature. One to two microliters of sample were injected to fill the main channel. The two valves were closed while the inlet and outlet channels were washed with H7 buffer. The top valve was opened, exposing the mucus interface. Twenty-five microliters of peptide solution were added to the reservoir of each inlet. The flow rate of the peptide solution into the inlet channel was determined by gravitational flow. […] At least two successful experimental replicates were obtained for each patient mucus sample, except for one sample of cervical mucus, for which only one measurement was obtained.
Images were analyzed using ImageJ (v1.47; Wayne Rasband, National Institutes of Health, Bethesda, MD, USA; http://imagej.nih.gov/ij) and MATLAB software.

Structure (SMILES) | concentration of the peptide at the end of the channel (450 μm) (mucus from high-risk pregnant patients (n = 9), 4 μM FAM-labelled peptide in H7 buffer pH 7, room temperature, epifluorescence read-out) [nM] | retention (enrichment) of the peptide at the mucus barrier interface (mucus from high-risk pregnant patients (n = 9), microfluidic channel, 4 μM FAM-labelled peptide in H7 buffer pH 7, room temperature) | concentration of the peptide at the end of the channel (450 μm) (mucus from low-risk pregnant patients (n = 15), 4 μM FAM-labelled peptide in H7 buffer pH 7, room temperature, epifluorescence read-out) [nM] | peptide concentration gradient through the mucus layer compared with buffer (mucus from ovulating women (n = 20), microfluidic channel, 4 μM FAM-labelled peptide in H7 buffer pH 7, room temperature, epifluorescence read-out) | average maximum concentration of peptide accumulated inside mucus (enrichment at mucus-buffer interface) (mucus from high-risk pregnant patients (n = 9), microfluidic channel, 4 μM FAM-labelled peptide in H7 buffer pH 7, room temperature, epifluorescence read-out) [µM] | average maximum concentration of peptide accumulated inside mucus (enrichment at mucus-buffer interface) (mucus from low-risk pregnant women (n = 15), microfluidic channel, 4 μM FAM-labelled peptide in H7 buffer pH 7, room temperature, epifluorescence read-out) [µM] | average maximum concentration of peptide accumulated inside mucus (enrichment at mucus-buffer interface) (mucus from ovulating non-pregnant women (n = 20), microfluidic channel, 4 μM FAM-labelled peptide in H7 buffer (20 mM HEPES, 20 mM NaCl, pH 7), room temperature, epifluorescence read-out) [µM]
C[C@H](NC(=O)c1ccc2c(c1)C1(OC2=O)c2ccc(O)cc2Oc2cc(O)ccc21)C(=O)N[C@@H](CCC(=O)O)C(=O)N[C@@H](C)C(=O)N[C@@H](CCC(=O)O)C(=O)N[C@@H](C)C(=O)N[C@@H](CCC(=O)O)C(=O)N[C@@H](C)C(=O)N[C@@H](CCC(=O)O)C(=O)N[C@@H](C)C(=O)N[C@@H](CCC(=O)O)C(=O)N[C@@H](C)C(=O)N[C@@H](CCC(=O)O)C(=O)N[C@@H](C)C(=O)N[C@@H](CCC(=O)O)C(=O)N[C@@H](C)C(=O)N[C@@H](CCC(=O)O)C(=O)N[C@@H](C)C(=O)N[C@@H](CCC(=O)O)C(=O)N[C@@H](C)C(=O)N[C@@H](CCC(=O)O)C(N)=O [(−) peptide] (6FAM-AEAEAEAEAEAEAEAEAEAE-NH2) | 1100 | not detected in any of the high-risk samples | 500 | nearly identical with or without mucus present | – | – | –
C[C@H](NC(=O)c1ccc2c(c1)C1(OC2=O)c2ccc(O)cc2Oc2cc(O)ccc21)C(=O)N[C@@H](CCCCN)C(=O)N[C@@H](C)C(=O)N[C@@H](CCCCN)C(=O)N[C@@H](C)C(=O)N[C@@H](CCCCN)C(=O)N[C@@H](C)C(=O)N[C@@H](CCCCN)C(=O)N[C@@H](C)C(=O)N[C@@H](CCCCN)C(=O)N[C@@H](C)C(=O)N[C@@H](CCCCN)C(=O)N[C@@H](C)C(=O)N[C@@H](CCCCN)C(=O)N[C@@H](C)C(=O)N[C@@H](CCCCN)C(=O)N[C@@H](C)C(=O)N[C@@H](CCCCN)C(=O)N[C@@H](C)C(=O)N[C@@H](CCCCN)C(N)=O [(+) peptide] (6FAM-AKAKAKAKAKAKAKAKAKAK-NH2) | – | – | – | – | 19.3 | 36.9 | 10.6

Source: PMC5583328, “Probing the potential of mucus permeability to signify preterm birth risk” (Scientific Reports, 2017)
